The values that follow are results of earlier work, collected in patent US20050182028A1, “Pharmaceutical formulation for oral delivery of bisphosphates” (priority 2004, published 2005).

The conditions of this data set: background statement.

For the compound `O=P(O)(O)C(O)(Cc1cccnc1)P(=O)(O)O` [risedronate, Risedronate], the oral bioavailability was 0.63%.
